Source: PMC7763444, “Bioactive Steroids from the Red Sea Soft Coral Sinularia polydactyla” (Marine Drugs, 2020)

Legend:
[1] = test system: ELAM (E-selectin, CD62E) on HUVEC; test: Cell-surface ELISA CD62E (E-selectin, ELAM) after TNFα stimulation; assay type: cell-based, human; details: 10 µM; 30 min pre-treatment, then TNFα for 4 h
Experimental: TNFα stimulates NFκB (nuclear factor kappa-light-chain-enhancer of activated B cells) and thus E-selectin (CD62E, ELAM). Endothelial cells were pre-treated for 30 min with the tested compounds and then activated with TNFα for 4 h. Curcumin, which inhibits activation of NF-κB and thus inhibits expression and activity of the COX-2 gene induced by TNFα [21], was used as a positive control, decreasing ELAM production to 25% at 10 µM.
An enzyme-linked immunosorbent assay (ELISA) was used to detect the levels of the cell adhesion molecule ELAM in HUVEC cells after 30 min of incubation with the tested compounds and 4 h of stimulation with TNFα, as previously described.
the cell surface of endothelial cells that were pretreated with 10 µM compounds for 30 min and
subsequently stimulated with 10 ng/ml TNFα for 4 h. Data are means ± SDs ( n = 3).
(1 picture or pasted object on this page, not shown here)

[2] = test system: neuron-like SH-SY5Y cells; test: Neuroprotection in 3-NPA-induced model of Huntington's disease, Calcein AM viability; assay type: cell-based, human; details: 20 mM 3-NPA alone, 48 h

SMILES	ELAM production (decreased to) [1] [%]	Decrease in cell viability [2]
COc1cc(/C=C/C(=O)CC(=O)/C=C/c2ccc(O)c(OC)c2)ccc1O [Curcumin]	25	
O=C(O)CC[N+](=O)[O-] [Compound 3-NPA, 3-nitropropionic acid]		approx. 70%
